Results reported in PubChem BioAssay (NCI).
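Protocol summary: plate cells (96-well), add compound at 5 concentrations, incubate 48 h, interpolate endpoints linearly. TGI: concentration producing complete growth inhibition.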

How the values were obtained:
Test in all cases: NCI anticancer screen, dose series, 48 h
786-0 renal = test system: 786-0 renal
A498 renal = test system: A498 renal
A549 NSCLC = test system: A549 NSCLC
ACHN renal = test system: ACHN renal
BT-549 breast = test system: BT-549 breast
CAKI-1 renal = test system: CAKI-1 renal
CCRF-CEM leukemia = test system: CCRF-CEM leukemia
COLO 205 colon = test system: COLO 205 colon
DU-145 prostate = test system: DU-145 prostate
EKVX NSCLC = test system: EKVX NSCLC
HCC-2998 colon = test system: HCC-2998 colon
HCT-116 colon = test system: HCT-116 colon
HCT-15 colon = test system: HCT-15 colon
HL-60(TB) leukemia = test system: HL-60(TB) leukemia
HOP-62 NSCLC = test system: HOP-62 NSCLC
HOP-92 NSCLC = test system: HOP-92 NSCLC
HS 578T breast = test system: HS 578T breast
HT29 colon = test system: HT29 colon
IGROV1 ovarian = test system: IGROV1 ovarian
K-562 leukemia = test system: K-562 leukemia
KM12 colon = test system: KM12 colon
LOX IMVI melanoma = test system: LOX IMVI melanoma
M14 melanoma = test system: M14 melanoma
MALME-3M melanoma = test system: MALME-3M melanoma
MCF7 breast = test system: MCF7 breast
MDA-MB-231 breast = test system: MDA-MB-231 breast
MDA-MB-435 = test system: MDA-MB-435
MDA-N = test system: MDA-N
MOLT-4 leukemia = test system: MOLT-4 leukemia
NCI-H226 lung = test system: NCI-H226 lung
NCI-H23 lung = test system: NCI-H23 lung
NCI-H460 lung = test system: NCI-H460 lung
NCI-H522 lung = test system: NCI-H522 lung
NCI/ADR-RES ovarian = test system: NCI/ADR-RES ovarian
OVCAR-3 ovarian = test system: OVCAR-3 ovarian
OVCAR-4 ovarian = test system: OVCAR-4 ovarian
OVCAR-5 ovarian = test system: OVCAR-5 ovarian
OVCAR-8 ovarian = test system: OVCAR-8 ovarian
PC-3 prostate = test system: PC-3 prostate
RPMI-8226 leukemia = test system: RPMI-8226 leukemia
RXF 393 renal = test system: RXF 393 renal
SF-268 CNS = test system: SF-268 CNS
SF-295 CNS = test system: SF-295 CNS
SF-539 CNS = test system: SF-539 CNS
SK-MEL-2 melanoma = test system: SK-MEL-2 melanoma
SK-MEL-28 melanoma = test system: SK-MEL-28 melanoma
SK-MEL-5 melanoma = test system: SK-MEL-5 melanoma
SK-OV-3 ovarian = test system: SK-OV-3 ovarian
SN12C renal = test system: SN12C renal
SNB-19 CNS = test system: SNB-19 CNS
SNB-75 CNS = test system: SNB-75 CNS
SR leukemia = test system: SR leukemia
SW-620 colon = test system: SW-620 colon
T-47D breast = test system: T-47D breast
TK-10 renal = test system: TK-10 renal
U251 CNS = test system: U251 CNS
UACC-257 melanoma = test system: UACC-257 melanoma
UACC-62 melanoma = test system: UACC-62 melanoma
UO-31 renal = test system: UO-31 renal

`CCOc1ccc(C2c3[nH]c4ccccc4c3CCN2C(=O)c2cccs2)cc1` (stereo not drawn) gave a TGI (786-0 renal) of over 100 µM, a TGI (A498 renal) of over 100 µM and a TGI (A549 NSCLC) of over 100 µM. For the same compound, the TGI (ACHN renal) was over 100 µM, the TGI (BT-549 breast) was over 100 µM and the TGI (CAKI-1 renal) was over 100 µM. It also gave a TGI (CCRF-CEM leukemia) of over 100 µM, a TGI (COLO 205 colon) of over 100 µM and a TGI (DU-145 prostate) of over 100 µM. For the same compound, the TGI (EKVX NSCLC) was over 100 µM, the TGI (HCC-2998 colon) was over 100 µM and the TGI (HCT-116 colon) was over 100 µM. It also gave a TGI (HCT-15 colon) of over 100 µM, a TGI (HL-60(TB) leukemia) of over 100 µM and a TGI (HOP-62 NSCLC) of over 100 µM. It also gave a TGI (HOP-92 NSCLC) of over 100 µM, a TGI (HS 578T breast) of over 100 µM and a TGI (HT29 colon) of over 100 µM. The TGI (IGROV1 ovarian) was over 100 µM, the TGI (K-562 leukemia) was over 100 µM and the TGI (KM12 colon) was over 100 µM. For the same compound, the TGI (LOX IMVI melanoma) was over 100 µM, the TGI (M14 melanoma) was over 100 µM and the TGI (MALME-3M melanoma) was over 100 µM. The TGI (MCF7 breast) was over 100 µM, the TGI (MDA-MB-231 breast) was over 100 µM and the TGI (MDA-MB-435) was over 100 µM. The TGI (MDA-N) was over 100 µM, the TGI (MOLT-4 leukemia) was over 100 µM and the TGI (NCI-H226 lung) was 43.4 µM. For the same compound, the TGI (NCI-H23 lung) was over 100 µM, the TGI (NCI-H460 lung) was 32.8 µM and the TGI (NCI-H522 lung) was over 100 µM. For the same compound, the TGI (NCI/ADR-RES ovarian) was over 100 µM, the TGI (OVCAR-3 ovarian) was over 100 µM and the TGI (OVCAR-4 ovarian) was over 100 µM. The TGI (OVCAR-5 ovarian) was over 100 µM, the TGI (OVCAR-8 ovarian) was over 100 µM and the TGI (PC-3 prostate) was over 100 µM. The TGI (RPMI-8226 leukemia) was over 100 µM, the TGI (RXF 393 renal) was over 100 µM and the TGI (SF-268 CNS) was over 100 µM. It also gave a TGI (SF-295 CNS) of over 100 µM, a TGI (SF-539 CNS) of over 100 µM and a TGI (SK-MEL-2 melanoma) of over 100 µM. The TGI (SK-MEL-28 melanoma) was over 100 µM, the TGI (SK-MEL-5 melanoma) was over 100 µM and the TGI (SK-OV-3 ovarian) was over 100 µM. It also gave a TGI (SN12C renal) of over 100 µM, a TGI (SNB-19 CNS) of over 100 µM and a TGI (SNB-75 CNS) of over 100 µM. The TGI (SR leukemia) was over 100 µM, the TGI (SW-620 colon) was over 100 µM and the TGI (T-47D breast) was over 100 µM. For the same compound, the TGI (TK-10 renal) was over 100 µM, the TGI (U251 CNS) was over 100 µM and the TGI (UACC-257 melanoma) was over 100 µM. The TGI (UACC-62 melanoma) was over 100 µM and the TGI (UO-31 renal) was over 100 µM.

`COc1ccc(CSCc2cc(OC)c(OC)c(OC)c2)cc1` was tested, and the TGI (786-0 renal) was over 100 µM, the TGI (A498 renal) was over 100 µM and the TGI (A549 NSCLC) was over 100 µM. For the same compound, the TGI (ACHN renal) was over 100 µM, the TGI (BT-549 breast) was over 100 µM and the TGI (CAKI-1 renal) was over 100 µM. The TGI (CCRF-CEM leukemia) was over 100 µM, the TGI (COLO 205 colon) was over 100 µM and the TGI (DU-145 prostate) was over 100 µM. For the same compound, the TGI (EKVX NSCLC) was over 31.6 µM, the TGI (HCC-2998 colon) was over 31.6 µM and the TGI (HCT-116 colon) was over 31.6 µM. The TGI (HCT-15 colon) was over 100 µM, the TGI (HL-60(TB) leukemia) was over 100 µM and the TGI (HOP-62 NSCLC) was over 100 µM. For the same compound, the TGI (HOP-92 NSCLC) was over 86.6 µM, the TGI (HS 578T breast) was over 100 µM and the TGI (HT29 colon) was over 100 µM. For the same compound, the TGI (IGROV1 ovarian) was over 100 µM, the TGI (K-562 leukemia) was over 100 µM and the TGI (KM12 colon) was over 100 µM. The TGI (LOX IMVI melanoma) was over 31.6 µM, the TGI (M14 melanoma) was over 100 µM and the TGI (MALME-3M melanoma) was over 31.6 µM. It also gave a TGI (MCF7 breast) of over 100 µM, a TGI (MDA-MB-231 breast) of over 100 µM and a TGI (MDA-MB-435) of over 81.3 µM. The TGI (MDA-N) was over 100 µM, the TGI (MOLT-4 leukemia) was over 100 µM and the TGI (NCI-H226 lung) was over 100 µM. The TGI (NCI-H23 lung) was over 100 µM, the TGI (NCI-H460 lung) was over 100 µM and the TGI (NCI-H522 lung) was over 100 µM. It also gave a TGI (NCI/ADR-RES ovarian) of over 31.6 µM, a TGI (OVCAR-3 ovarian) of over 100 µM and a TGI (OVCAR-4 ovarian) of over 100 µM. It also gave a TGI (OVCAR-5 ovarian) of over 100 µM, a TGI (OVCAR-8 ovarian) of over 31.6 µM and a TGI (PC-3 prostate) of over 31.6 µM. It also gave a TGI (RPMI-8226 leukemia) of over 100 µM, a TGI (RXF 393 renal) of over 100 µM and a TGI (SF-268 CNS) of over 100 µM. For the same compound, the TGI (SF-295 CNS) was over 100 µM, the TGI (SF-539 CNS) was over 100 µM and the TGI (SK-MEL-2 melanoma) was over 100 µM. The TGI (SK-MEL-28 melanoma) was over 100 µM, the TGI (SK-MEL-5 melanoma) was over 100 µM and the TGI (SK-OV-3 ovarian) was over 100 µM. For the same compound, the TGI (SN12C renal) was over 100 µM, the TGI (SNB-19 CNS) was over 100 µM and the TGI (SNB-75 CNS) was over 100 µM. It also gave a TGI (SR leukemia) of over 100 µM, a TGI (SW-620 colon) of over 100 µM and a TGI (T-47D breast) of over 100 µM. The TGI (TK-10 renal) was over 100 µM, the TGI (U251 CNS) was over 100 µM and the TGI (UACC-257 melanoma) was over 31.6 µM. It also gave a TGI (UACC-62 melanoma) of over 100 µM and a TGI (UO-31 renal) of over 100 µM.
